The source of these data is PubChem BioAssay (NCI).

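Compound exposure: 48 hours, 5 concentrations, 96-well plates. TGI marks complete inhibition of growth.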 Where a SMILES comes first, the peptide text is derived from it. [ ]: non-standard residue; d: D form. The star is where a group is joined. ξ: configuration not given here. ξW = NC(Cc1c[nH]c2ccccc12)C(=O)O; X30 = O=C(O)[C@H]1CCC[C@H]1N*; ξF = NC(Cc1ccccc1)C(=O)O; Boc = CC(C)(C)OC(=O)*; ξK = NCCCCC(N)C(=O)O; ξT = CC(O)C(N)C(=O)O; tBu = CC(C)(C)* Bounds are passed on as bounds.

Some test systems named below: UACC-62 melanoma; RXF 393 renal; SNB-75 CNS; COLO 205 colon; TK-10 renal; SK-MEL-28 melanoma; M14 melanoma; NCI/ADR-RES ovarian; K-562 leukemia; HOP-92 NSCLC.
Test in all cases: NCI anticancer screen, dose series, 48 h

On to `NN/C(=N\S(=O)(=O)c1cccc2nsnc12)Nc1ccc(Cl)cc1`, for which the TGI with UACC-62 melanoma, in the assay with RXF 393 renal, in the assay on SNB-75 CNS, with COLO 205 colon, with TK-10 renal and in the assay on SK-MEL-28 melanoma was more than 100 µM each time. The TGI in the assay with M14 melanoma, with NCI/ADR-RES ovarian, in the assay with K-562 leukemia and with HOP-92 NSCLC was more than 100 µM in each case.
As for `CN(C)c1ccc(/C=C2\N=C(c3ccccc3)N(/N=C3\C(=O)Nc4ccccc43)C2=O)cc1`, the TGI in the assay with UACC-62 melanoma was more than 100 µM; with RXF 393 renal, more than 100 µM; in the assay with SNB-75 CNS, more than 100 µM; with COLO 205 colon, 81 µM; in the assay on TK-10 renal, more than 100 µM; in the assay with SK-MEL-28 melanoma it was more than 100 µM. Also, the TGI with M14 melanoma, in the assay on NCI/ADR-RES ovarian, in the assay on K-562 leukemia and with HOP-92 NSCLC was more than 100 µM throughout.
For the molecule `Nc1ccc(-c2nc3ccccc3s2)cc1F`, the TGI is 53.4 µM in the assay with UACC-62 melanoma; more than 100 µM in the assay with RXF 393 renal; 82 µM with SNB-75 CNS; 48.3 µM in the assay with COLO 205 colon; more than 100 µM in the assay on SK-MEL-28 melanoma; more than 100 µM in the assay on M14 melanoma. Moreover, the TGI with NCI/ADR-RES ovarian, in the assay on K-562 leukemia and in the assay on HOP-92 NSCLC was more than 100 µM throughout.
For `Cc1ccc(N=Nc2c(C)nn(C(=O)CC(=O)Nc3ccc(Cl)cc3)c2C)cc1C`, the TGI in the assay on UACC-62 melanoma was more than 100 µM; with RXF 393 renal, 67.2 µM; in the assay on SNB-75 CNS, 48.7 µM; with COLO 205 colon, more than 100 µM; in the assay on TK-10 renal, more than 100 µM; in the assay with SK-MEL-28 melanoma, more than 100 µM. In addition, the TGI in the assay with M14 melanoma is more than 100 µM; with NCI/ADR-RES ovarian it was more than 100 µM; in the assay on HOP-92 NSCLC, 64.3 µM.
Regarding `O=C(/C=C/c1ccc(O)cc1)c1cc(O)cc(O)c1`, the TGI with UACC-62 melanoma was found to be 24.1 µM; with RXF 393 renal it was 32 µM; in the assay with SNB-75 CNS, 39.9 µM; in the assay with COLO 205 colon, 31.9 µM; with TK-10 renal, 45.8 µM; in the assay on SK-MEL-28 melanoma, 42.7 µM. In addition, the TGI with M14 melanoma is 29.3 µM; in the assay on NCI/ADR-RES ovarian, more than 100 µM; with K-562 leukemia it was 18.4 µM; in the assay on HOP-92 NSCLC, 31.9 µM.
As for `CC(C)N(C(=O)c1ccc(NCc2cc(O)ccc2O)cc1)C(C)C`, the TGI with UACC-62 melanoma is 28.9 µM; in the assay on RXF 393 renal it was 28.3 µM; in the assay with SNB-75 CNS it was more than 100 µM; in the assay with COLO 205 colon, more than 100 µM; in the assay on TK-10 renal, 29.5 µM; in the assay on SK-MEL-28 melanoma, 45.9 µM. Also, the TGI is 35.7 µM in the assay with M14 melanoma, 42.9 µM in the assay with NCI/ADR-RES ovarian, more than 100 µM with K-562 leukemia and 24.9 µM in the assay with HOP-92 NSCLC.
Turning to `CC(OC(C)(C)C)C(NC(=O)C(CCCCNC(=O)OC(C)(C)C)NC(=O)C(Cc1c[nH]c2ccccc12)NC(=O)C(N)Cc1ccccc1)C(=O)NC(Cc1ccccc1)C(=O)N[C@@H]1CCC[C@@H]1C(=O)O` (stereo partly specified) (H-[ξF][ξW][ξK](Boc)[ξT](tBu)[ξF]-X30), the TGI in the assay on UACC-62 melanoma was 85.5 µM; in the assay with RXF 393 renal, more than 100 µM; with SNB-75 CNS it was more than 100 µM; in the assay on COLO 205 colon, 76.2 µM; with SK-MEL-28 melanoma, more than 100 µM; in the assay with M14 melanoma it was more than 100 µM. The TGI was more than 100 µM with NCI/ADR-RES ovarian, more than 100 µM with K-562 leukemia and 88.3 µM with HOP-92 NSCLC.
Consider `Cc1n(-c2ccccc2)c2c([n+]1Cc1ccc([N+](=O)[O-])cc1)C(=O)c1ccccc1C2=O`, for which the TGI in the assay on UACC-62 melanoma was 3.74 µM; with RXF 393 renal it was 21.5 µM; with SNB-75 CNS, 13.1 µM; with COLO 205 colon, 3.07 µM; in the assay with TK-10 renal, 19.3 µM; in the assay on SK-MEL-28 melanoma, 3.59 µM. Besides, the TGI was 7 µM in the assay on M14 melanoma, 5.61 µM with NCI/ADR-RES ovarian, 4.64 µM in the assay on K-562 leukemia and 4.3 µM in the assay on HOP-92 NSCLC.
As for `CSc1n[nH]c2n[nH]c(C)c12`, the TGI in the assay on UACC-62 melanoma, in the assay on RXF 393 renal, in the assay with SNB-75 CNS, in the assay on COLO 205 colon, in the assay on TK-10 renal and with SK-MEL-28 melanoma was more than 100 µM throughout. In addition, the TGI in the assay with M14 melanoma, in the assay with NCI/ADR-RES ovarian, in the assay with K-562 leukemia and in the assay on HOP-92 NSCLC was more than 100 µM throughout.
With `CCOC(=O)NC(C(C(=O)OCC)C(=O)OCC)(C(F)(F)F)C(F)(F)F`, the TGI in the assay with UACC-62 melanoma, in the assay with RXF 393 renal, in the assay on SNB-75 CNS, in the assay on COLO 205 colon, with TK-10 renal and in the assay with SK-MEL-28 melanoma was more than 100 µM throughout. The TGI in the assay on M14 melanoma, with NCI/ADR-RES ovarian, in the assay with K-562 leukemia and in the assay on HOP-92 NSCLC was more than 100 µM each time.
In the case of `O=C(Nc1ccc(N2C(=O)CSC2c2cccs2)cc1)c1ccc(N2C(=O)CSC2c2cccs2)cc1` (stereo unspecified), the TGI with UACC-62 melanoma, in the assay on RXF 393 renal, with SNB-75 CNS, in the assay on COLO 205 colon, in the assay with TK-10 renal and with SK-MEL-28 melanoma was more than 100 µM in each case. The TGI with M14 melanoma, in the assay on NCI/ADR-RES ovarian, in the assay on K-562 leukemia and in the assay on HOP-92 NSCLC was more than 100 µM throughout.
With `CN(C)C(=O)C(F)(F)C(c1ccc(C(F)(F)F)cc1)C1C(=O)N(C)C(=O)N(C)C1=O` (stereo unspecified), the TGI in the assay with UACC-62 melanoma, with RXF 393 renal, in the assay with SNB-75 CNS, in the assay on COLO 205 colon, with TK-10 renal and in the assay with SK-MEL-28 melanoma was more than 100 µM throughout. For the same molecule, the TGI in the assay on M14 melanoma, with NCI/ADR-RES ovarian and in the assay with HOP-92 NSCLC was more than 100 µM throughout.
As to `O=C1Cc2c(-c3ccccc3)cc(-c3ccc4ccccc4c3)nc2-c2ccccc2N1`, the TGI was more than 100 µM with UACC-62 melanoma; 13.1 µM in the assay with RXF 393 renal; 5.38 µM in the assay with SNB-75 CNS; more than 100 µM with COLO 205 colon; 29.4 µM with TK-10 renal; more than 100 µM in the assay with SK-MEL-28 melanoma. The TGI is more than 100 µM with M14 melanoma, more than 100 µM in the assay with NCI/ADR-RES ovarian, 9.41 µM in the assay on K-562 leukemia and more than 100 µM in the assay with HOP-92 NSCLC.
